The values that follow come from paper PMC13090440, “Targeting SARS-CoV-2 main protease (3CL^pro) with Paeonia-derived phytochemicals” (In Silico Pharmacology, 2026).

The target in this experiment is T1, SARS-CoV-2 3CL^pro (Severe acute respiratory syndrome coronavirus 2, UniProt P0DTD1).
T1 construct: gene rep
Kind of experiment: fluorogenic peptide cleavage assay, continuous. The experiment is classed as biochemical.

By IC50 is commonly meant the midpoint of a concentration-inhibition curve. Turning to `COc1c(-c2ccc(O)c(O)c2)oc2cc(O)cc(O)c2c1=O` [3-O-methylquercetin], it took 43.9 µM to reach half-maximal inhibition (IC50). In other words, the double-digit micromolar range.
